Experimental findings from patent US6693207B2, “B-ring estratriene diols” (Wyeth, priority 1997, dated 2004) are described below.

The test system of this test is uterine weight, immature rats. Kind of test: In vivo uterotropic activity. The arrangement: species or system rat. Conditions: 0.2 and 2 mg/kg, three days, S.C. As to the method: Immature rats were treated with doses of 0.2 and 2 mg/kg 5,7,9-estratriene-3β,17β-diol for three days (S.C.) as well as additional groups (n=6) of rats treated with 0.5 μg ethinyl estradiol and vehicle as positive and negative controls, respectively.

The structures appear in SMILES notation.

On to `C[C@]12CCc3c(ccc4c3CC[C@H](O)C4)[C@@H]1CC[C@@H]2O` [5,7,9-estratriene-3β,17β-diol], for which the uterine weight result is given as “uterine weight gains at both concentrations”.
